Results taken from patent US11236055B2 (Venenum Biodesign, LLC, priority 2016, dated 2022).

What was measured:
Mouse STC-1 cells = assay: STC-1 GLP-1 assay; type: cell-based; conditions: GLP-1 secretion, 2 h, coded A-C, read-out: Mouse STC-1 HTRF GLP-1 Activity (EC50)
How it was run: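 Cells were seeded two days before in charcoal-stripped FBS medium, then exposed 2 h at 37 °C to compounds (12-point half-log series) in HBSS with protease inhibitors, DPP-IV inhibitor and 0.1% fatty acid free BSA. Active GLP-1 in supernatants measured by HTRF; EC50 derived.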

[1] = Pharmacokinetic profile in mice; type: in vivo; conditions: mouse; fasted male Hilltop mice, 10 mg/kg oral gavage, plasma, mean of three mice
How it was run: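 Fasted 8-week-old male Hilltop mice received 10 mg/kg by oral gavage in 20% PEG400/80% 0.5% CMC + 0.25% Tween-80. Plasma was sampled at 0–4 h, with at most 3 draws per mouse, and measured by LC-MS/MS (0.1–500 ng/mL standards). Cmax and AUC were derived non-compartmentally; values are means of three mice.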

Compound | EC50 (Mouse STC-1 cells) | Cmax [1]
CCc1cnccc1-c1cccc([C@H](C)N(CCCC(=O)NCCS(=O)(=O)O)S(=O)(=O)c2ccccc2C)c1 [Compound 20AR, (S)-2-(4-(N-(1-(3-(3-ethylpyridin-4-yl)phenyl)ethyl)-2-methylphenyl-sulfonamido)butanamido)ethane sulfonic acid] | 100 to 999 nM | 3.2 ng/mL
CCc1cnccc1-c1cccc(C(C)(C)N(CCCC(=O)NCCS(=O)(=O)O)S(=O)(=O)c2ccccc2C(F)(F)F)c1 [Compound 20, 2-(4-(N-(2-(3-(3-ethylpyridin-4-yl)phenyl)propan-2-yl)-2-(trifluoromethyl)-phenylsulfonamido)butanamido)ethanesulfonic acid] | < 100 nM | 5 ng/mL
Cc1cnccc1-c1cccc(C(C)(C)N(CCCC(=O)O)S(=O)(=O)c2ccccc2C(F)(F)F)c1 [Compound 14, 4-(N-(2-(3-(3-methylpyridin-4-yl)phenyl)propan-2-yl)-2-(trifluoromethyl)phenylsulfonamido)butanoic acid] | 100 to 999 nM | 1080 ng/mL
Cc1cnccc1-c1cccc(C(C)(C)N(CCCC(=O)NC[C@@H](O)[C@H](O)[C@@H](O)[C@@H](O)CO)S(=O)(=O)c2cccc(Cl)c2C)c1 [Compound 20AF, 4-(3-chloro-2-methyl-N-(2-(3-(3-methylpyridin-4-yl)phenyl)propan-2-yl)phenylsulfonamido)-N-((2R,3S,4S,5S)-2,3,4,5,6-pentahydroxyhexyl)butanamide] | 100 to 999 nM | 5.2 ng/mL
Cc1cnccc1-c1cccc(C(C)(C)N(CCCC(=O)NCCS(=O)(=O)O)S(=O)(=O)c2ccccc2C(F)(F)F)c1 [Compound 20AA, 2-(4-(N-(2-(3-(3-methylpyridin-4-yl)phenyl)propan-2-yl)-2-(trifluoromethyl)phenylsulfonamido)butanamido)ethanesulfonic acid] | 100 to 999 nM | 7.2 ng/mL
CCc1cnccc1-c1cccc(C(C)(C)NS(=O)(=O)c2ccccc2C(F)(F)F)c1 [Compound 5, N-(2-(3-(3-ethylpyridin-4-yl)phenyl)propan-2-yl)-2-(trifluoromethyl)benzenesulfonamide] | 100 to 999 nM | 3.1 ng/mL
Cc1cnccc1-c1cccc([C@H](C)N(CCCCNC(=O)NCS(=O)(=O)O)S(=O)(=O)c2ccccc2C(F)(F)F)c1 [Compound 28AC, (S)-(3-(4-(N-(1-(3-(3-methylpyridin-4-yl)phenyl)ethyl)-2-(trifluoromethyl)phenylsulfonamido)butyl)ureido)methanesulfonic acid] | 1000 to 30000 nM | 0.8 ng/mL
CCc1cnccc1-c1cccc([C@H](C)N(CCCC(=O)NCCS(=O)(=O)O)S(=O)(=O)c2cccc(Cl)c2C)c1 [Compound 21AQ, (S)-2-(4-(3-chloro-N-(1-(3-(3-ethylpyridin-4-yl)phenyl)ethyl)-2-methylphenylsulfonamido)butanamido)ethanesulfonic acid] | 100 to 999 nM | 4.2 ng/mL
Cc1cnccc1-c1cccc([C@H](C)N(CCCC(=O)NCCS(=O)(=O)NCC(=O)O)S(=O)(=O)c2cccc(Cl)c2C)c1 [Compound 21AN, (S) 2-(3-(4-(3-chloro-2-methyl-N-(1-(3-(3-methylpyridin-4-yl)phenyl)ethyl)phenylsulfonamido)butanamido)ethylsulfonamido)acetic acid] | 100 to 999 nM | 1.9 ng/mL
Cc1cnccc1-c1cccc(C(C)(C)NS(=O)(=O)c2cccc(C(F)(F)F)c2)c1 [Compound 5AA, N-(2-(3-(3-methylpyridin-4-yl)phenyl)propan-2-yl)-3-(trifluoromethyl)benzenesulfonamide] | 100 to 999 nM | 128 ng/mL

Other lines, results leading:

EC50 (Mouse STC-1 cells) | Cmax [1] | Compound
100 to 999 nM | 0.3 ng/mL | CCc1cnccc1-c1cccc([C@H](C)N(CCCC(=O)NCCS(=O)(=O)NCC(=O)O)S(=O)(=O)c2ccccc2C(F)(F)F)c1 [Compound 20BG]
100 to 999 nM | 1.1 ng/mL | CCc1cnccc1-c1cccc([C@H](C)N(CCCC(=O)NCCS(=O)(=O)NCC(=O)O)S(=O)(=O)c2ccccc2C)c1 [Compound 20BU, (S)-2-(4-(2-methyl-N-(1-(3-(3-ethylpyridin-4-yl)phenyl)ethyl)phenylsulfonamido)butanamidoethylsulfonamido)acetate]
1000 to 30000 nM | 0.4 ng/mL | Cc1cnccc1-c1cccc([C@H](C)N(CCCC(=O)NCCS(=O)(=O)NCCCC(=O)O)S(=O)(=O)c2ccccc2C(F)(F)F)c1 [Compound 20BK]
1000 to 30000 nM | 1.2 ng/mL | Cc1cnccc1-c1cccc([C@H](C)N(CCCCC(=O)NCCS(=O)(=O)NCC(=O)O)S(=O)(=O)c2ccccc2C(F)(F)F)c1 [Compound 20BL, (S) 2-(4-(N-(1-(3-(3-methylpyridin-4-yl)phenyl)ethyl)-2-(trifluoromethyl)phenylsulfonamidopentanamido)ethylsulfonamido)acetic acid]
100 to 999 nM | 7.6 ng/mL | Cc1cnccc1-c1cccc([C@H](C)N(CCCC(=O)NCCS(=O)(=O)NCCC(=O)O)S(=O)(=O)c2cccc(Cl)c2C)c1 [Compound 21AL]
100 to 999 nM | 0.8 ng/mL | CCc1cnccc1-c1cccc([C@H](C)N(CCCC(=O)NCCS(=O)(=O)O)S(=O)(=O)c2ccccc2C(F)(F)F)c1 [Compound 20BF, (S)-2-(4-(N-(1-(3-(3-ethylpyridin-4-yl)phenyl)ethyl)-2-(trifluoromethyl)phenylsulfonamido)butanamido)ethanesulfonic acid]
100 to 999 nM | 2.6 ng/mL | Cc1cnccc1-c1cccc([C@H](C)N(CCCC(=O)NCCNS(=O)(=O)CCC(=O)O)S(=O)(=O)c2cccc(Cl)c2C)c1 [Compound 26AB]
